# Target: Beta-1 adrenergic receptor (Homo sapiens, UniProt P08588)
# Assay: DRUGMATRIX: Adrenergic beta1 radioligand binding (ligand: [125I] Cyanopindolol)
# Assay type: cell membranes, CHO-K1, Membrane
# Details: cho-k1; Not Active = under 50% inhibition at 10 µM
# Sequence of Beta-1 adrenergic receptor (P08588 whole entry): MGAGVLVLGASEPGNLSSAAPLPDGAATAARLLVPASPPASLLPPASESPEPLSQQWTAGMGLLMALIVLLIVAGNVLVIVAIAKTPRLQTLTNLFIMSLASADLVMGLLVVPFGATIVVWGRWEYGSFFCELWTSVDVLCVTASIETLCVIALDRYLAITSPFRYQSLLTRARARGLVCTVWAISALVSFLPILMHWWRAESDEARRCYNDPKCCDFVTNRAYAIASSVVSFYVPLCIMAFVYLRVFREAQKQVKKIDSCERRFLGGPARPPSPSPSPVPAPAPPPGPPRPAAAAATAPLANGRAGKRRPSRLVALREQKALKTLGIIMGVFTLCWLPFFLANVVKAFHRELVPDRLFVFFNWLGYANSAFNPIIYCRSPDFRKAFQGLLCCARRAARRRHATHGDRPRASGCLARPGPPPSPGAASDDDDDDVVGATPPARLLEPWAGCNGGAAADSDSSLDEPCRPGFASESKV
row,SMILES,IC50
1,C=C1CC[C@H](O)C/C1=C/C=C1\CCC[C@]2(C)[C@@H]([C@H](C)/C=C/[C@H](C)C(C)C)CC[C@@H]12 [ERGOCALCIFEROL],Not Active
2,CCc1cccc2c3c([nH]c12)C(CC)(CC(=O)O)OCC3 (stereo not given) [ETODOLAC],Not Active

# Tested on: not listed separately
# Assay: DRUGMATRIX: beta-Lactamase enzyme inhibition (substrate: Nitrocefin)
# Parameters: species or system Bacillus cereus
# Details: Not Active = under 50% inhibition at 10 µM
SMILES,IC50,Ki
C=C1CC[C@H](O)C/C1=C/C=C1\CCC[C@]2(C)[C@@H]([C@H](C)/C=C/[C@H](C)C(C)C)CC[C@@H]12 [ERGOCALCIFEROL],Not Active,Not Active
CCc1cccc2c3c([nH]c12)C(CC)(CC(=O)O)OCC3 (stereo not given) [ETODOLAC],Not Active,Not Active

# Target: T1, 5-hydroxytryptamine receptor 2C (Homo sapiens, UniProt P28335)
# T1 sequence (P28335 whole entry): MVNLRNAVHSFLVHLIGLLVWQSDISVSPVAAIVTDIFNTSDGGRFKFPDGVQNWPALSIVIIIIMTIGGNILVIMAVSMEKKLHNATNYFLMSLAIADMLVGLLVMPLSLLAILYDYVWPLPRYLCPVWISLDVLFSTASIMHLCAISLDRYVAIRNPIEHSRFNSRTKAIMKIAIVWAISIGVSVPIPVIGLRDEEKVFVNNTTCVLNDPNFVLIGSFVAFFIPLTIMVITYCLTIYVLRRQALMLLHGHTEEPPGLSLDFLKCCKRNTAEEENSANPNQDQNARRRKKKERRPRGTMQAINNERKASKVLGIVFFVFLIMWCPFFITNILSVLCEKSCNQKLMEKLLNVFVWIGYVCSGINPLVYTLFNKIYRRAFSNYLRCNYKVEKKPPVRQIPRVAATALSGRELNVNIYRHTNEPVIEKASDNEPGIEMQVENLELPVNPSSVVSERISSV
# Assay: DRUGMATRIX: Serotonin (5-Hydroxytryptamine) 5-HT2C radioligand binding (ligand: [3H] Mesulergine)
# Assay type: cell membranes, CHO-K1, Membrane
# Details: cho-k1; Not Active = under 50% inhibition at 10 µM
row,SMILES,IC50
1,C=C1CC[C@H](O)C/C1=C/C=C1\CCC[C@]2(C)[C@@H]([C@H](C)/C=C/[C@H](C)C(C)C)CC[C@@H]12 [ERGOCALCIFEROL],Not Active
2,CCc1cccc2c3c([nH]c12)C(CC)(CC(=O)O)OCC3 (stereo not given) [ETODOLAC],Not Active

# Tested on: not listed separately
# Assay: DRUGMATRIX: Sigma2 radioligand binding (ligand: [3H] Ifenprodil)
# Assay type: cell membranes, Rattus norvegicus, Wistar, Brain, Membrane
# Details: Not Active = under 50% inhibition at 10 µM
SMILES,IC50,Ki
C=C1CC[C@H](O)C/C1=C/C=C1\CCC[C@]2(C)[C@@H]([C@H](C)/C=C/[C@H](C)C(C)C)CC[C@@H]12 [ERGOCALCIFEROL],Not Active,Not Active
CCc1cccc2c3c([nH]c12)C(CC)(CC(=O)O)OCC3 (stereo not given) [ETODOLAC],Not Active,Not Active

# Target: T2, D(4) dopamine receptor (Homo sapiens, UniProt P21917)
# T2 sequence (P21917 whole entry): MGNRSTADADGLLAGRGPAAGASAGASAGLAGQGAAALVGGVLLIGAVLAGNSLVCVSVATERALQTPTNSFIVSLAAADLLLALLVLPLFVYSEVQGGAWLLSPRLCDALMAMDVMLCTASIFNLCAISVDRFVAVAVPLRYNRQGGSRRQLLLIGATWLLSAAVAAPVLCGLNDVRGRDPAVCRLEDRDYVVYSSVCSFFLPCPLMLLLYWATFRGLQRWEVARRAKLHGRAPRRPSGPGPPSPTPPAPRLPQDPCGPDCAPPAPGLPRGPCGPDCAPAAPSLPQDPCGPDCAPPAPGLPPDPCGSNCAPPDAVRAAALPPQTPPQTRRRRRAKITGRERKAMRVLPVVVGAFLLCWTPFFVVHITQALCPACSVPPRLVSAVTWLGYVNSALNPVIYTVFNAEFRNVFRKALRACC
# Assay: DRUGMATRIX: Dopamine D4.2 radioligand binding (ligand: [3H] Spiperone)
# Assay type: cell membranes, CHO-K1, Membrane
# Details: cho-k1; Not Active = under 50% inhibition at 10 µM
row,SMILES,IC50
1,C=C1CC[C@H](O)C/C1=C/C=C1\CCC[C@]2(C)[C@@H]([C@H](C)/C=C/[C@H](C)C(C)C)CC[C@@H]12 [ERGOCALCIFEROL],Not Active
2,CCc1cccc2c3c([nH]c12)C(CC)(CC(=O)O)OCC3 (stereo not given) [ETODOLAC],Not Active

# Tested on: not listed separately
# Assay: DRUGMATRIX: Leukotriene, BLT (LTB4) radioligand binding (ligand: [3H]LTB4)
# Assay type: cell membranes, Membrane
# Details: u-937; Not Active = under 50% inhibition at 10 µM
SMILES,IC50,Ki
C=C1CC[C@H](O)C/C1=C/C=C1\CCC[C@]2(C)[C@@H]([C@H](C)/C=C/[C@H](C)C(C)C)CC[C@@H]12 [ERGOCALCIFEROL],Not Active,Not Active
CCc1cccc2c3c([nH]c12)C(CC)(CC(=O)O)OCC3 (stereo not given) [ETODOLAC],Not Active,Not Active

# Target: T3, Cysteinyl leukotriene receptor 1 (Homo sapiens, UniProt Q9Y271); also: in other assays of this panel Not Active means under 50% inhibition at 10 µM
# T3 sequence (Q9Y271 whole entry): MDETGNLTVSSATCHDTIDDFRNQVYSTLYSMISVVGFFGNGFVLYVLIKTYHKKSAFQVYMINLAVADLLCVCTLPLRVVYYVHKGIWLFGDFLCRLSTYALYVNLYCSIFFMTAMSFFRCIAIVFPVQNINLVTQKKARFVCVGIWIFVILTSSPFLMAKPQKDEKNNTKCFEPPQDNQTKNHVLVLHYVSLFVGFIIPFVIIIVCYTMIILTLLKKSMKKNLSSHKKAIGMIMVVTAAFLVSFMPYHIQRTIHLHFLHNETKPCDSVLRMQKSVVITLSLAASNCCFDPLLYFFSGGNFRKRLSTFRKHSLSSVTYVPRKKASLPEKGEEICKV
# Assay: not given
# Assay type: cell membranes, CHO-K1, Membrane
# Details: cho-k1
row,SMILES,IC50
1,C=C1CC[C@H](O)C/C1=C/C=C1\CCC[C@]2(C)[C@@H]([C@H](C)/C=C/[C@H](C)C(C)C)CC[C@@H]12 [ERGOCALCIFEROL],Not Active
2,CCc1cccc2c3c([nH]c12)C(CC)(CC(=O)O)OCC3 (stereo not given) [ETODOLAC],Not Active

# Target: Melanocortin receptor 4 (Homo sapiens, UniProt P32245); also: in other assays of this panel Not Active means under 50% inhibition at 10 µM
# Sequence (P32245 whole entry): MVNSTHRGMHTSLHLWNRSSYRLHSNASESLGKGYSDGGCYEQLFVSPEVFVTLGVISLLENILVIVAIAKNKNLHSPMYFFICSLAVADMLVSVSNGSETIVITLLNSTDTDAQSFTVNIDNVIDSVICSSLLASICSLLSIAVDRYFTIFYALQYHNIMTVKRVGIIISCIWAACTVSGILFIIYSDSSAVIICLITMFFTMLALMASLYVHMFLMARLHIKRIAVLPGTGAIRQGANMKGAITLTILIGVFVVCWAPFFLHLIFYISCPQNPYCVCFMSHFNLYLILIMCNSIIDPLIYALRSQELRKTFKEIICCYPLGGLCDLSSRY
# Assay: not given
# Assay type: cell membranes, Membrane
# Details: hek293
row,SMILES,IC50
1,C=C1CC[C@H](O)C/C1=C/C=C1\CCC[C@]2(C)[C@@H]([C@H](C)/C=C/[C@H](C)C(C)C)CC[C@@H]12 [ERGOCALCIFEROL],Not Active
2,CCc1cccc2c3c([nH]c12)C(CC)(CC(=O)O)OCC3 (stereo not given) [ETODOLAC],Not Active

# Target: Melanocortin receptor 5 (Homo sapiens, UniProt P33032); also: in other assays of this panel Not Active means under 50% inhibition at 10 µM
# Sequence (P33032 whole entry): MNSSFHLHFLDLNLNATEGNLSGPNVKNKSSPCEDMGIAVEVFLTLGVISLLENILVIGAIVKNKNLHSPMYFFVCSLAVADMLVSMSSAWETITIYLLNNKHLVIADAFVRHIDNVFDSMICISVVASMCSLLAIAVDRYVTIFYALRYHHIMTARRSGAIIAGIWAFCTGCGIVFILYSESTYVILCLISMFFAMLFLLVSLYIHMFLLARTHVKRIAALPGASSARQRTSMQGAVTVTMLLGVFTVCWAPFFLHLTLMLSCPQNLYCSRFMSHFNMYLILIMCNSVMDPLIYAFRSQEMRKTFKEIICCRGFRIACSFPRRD
# Assay: not given
# Assay type: cell membranes, HEK293, Membrane
# Details: hek293
row,SMILES,IC50
1,C=C1CC[C@H](O)C/C1=C/C=C1\CCC[C@]2(C)[C@@H]([C@H](C)/C=C/[C@H](C)C(C)C)CC[C@@H]12 [ERGOCALCIFEROL],Not Active
2,CCc1cccc2c3c([nH]c12)C(CC)(CC(=O)O)OCC3 (stereo not given) [ETODOLAC],Not Active

# Target: Mu-type opioid receptor (Homo sapiens, UniProt P35372)
# Sequence (P35372 whole entry): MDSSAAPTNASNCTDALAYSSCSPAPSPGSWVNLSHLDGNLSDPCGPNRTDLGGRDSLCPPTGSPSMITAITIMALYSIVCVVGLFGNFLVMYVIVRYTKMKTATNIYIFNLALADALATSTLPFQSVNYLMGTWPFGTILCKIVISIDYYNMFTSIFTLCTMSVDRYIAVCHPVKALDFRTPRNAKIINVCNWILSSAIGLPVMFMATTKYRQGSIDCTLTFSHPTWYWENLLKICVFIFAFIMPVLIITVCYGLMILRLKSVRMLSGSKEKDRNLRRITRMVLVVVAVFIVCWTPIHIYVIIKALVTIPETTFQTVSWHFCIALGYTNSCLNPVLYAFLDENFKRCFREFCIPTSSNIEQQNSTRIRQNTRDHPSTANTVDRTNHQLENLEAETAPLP
# Assay: DRUGMATRIX: Opiate mu (OP3, MOP) radioligand binding (ligand: [3H] Diprenorphine)
# Assay type: cell membranes, CHO-K1, Membrane
# Details: cho-k1; Not Active = under 50% inhibition at 10 µM
row,SMILES,IC50
1,C=C1CC[C@H](O)C/C1=C/C=C1\CCC[C@]2(C)[C@@H]([C@H](C)/C=C/[C@H](C)C(C)C)CC[C@@H]12 [ERGOCALCIFEROL],Not Active
2,CCc1cccc2c3c([nH]c12)C(CC)(CC(=O)O)OCC3 (stereo not given) [ETODOLAC],Not Active

# Target: T4, Caspase-1 (Homo sapiens, UniProt P29466);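 also: Caspase-1 enzyme inhibition assay with a peptide substrate; in other assays of this panel Not Active means under 50% inhibition at 10 µM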
# T4 sequence (P29466 whole entry): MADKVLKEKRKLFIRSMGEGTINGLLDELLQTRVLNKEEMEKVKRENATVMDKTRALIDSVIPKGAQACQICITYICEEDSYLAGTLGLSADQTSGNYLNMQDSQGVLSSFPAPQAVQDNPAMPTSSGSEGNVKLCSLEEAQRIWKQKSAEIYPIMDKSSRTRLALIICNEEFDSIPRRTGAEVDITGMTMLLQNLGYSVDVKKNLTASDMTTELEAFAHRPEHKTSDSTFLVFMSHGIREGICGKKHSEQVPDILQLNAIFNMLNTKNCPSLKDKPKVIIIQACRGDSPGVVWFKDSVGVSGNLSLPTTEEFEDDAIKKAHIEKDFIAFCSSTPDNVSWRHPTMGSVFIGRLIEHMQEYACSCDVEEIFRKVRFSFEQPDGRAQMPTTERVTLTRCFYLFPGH
# Assay: not given
# Parameters: species or system Escherichia coli
# Details: not given
row,SMILES,IC50
1,C=C1CC[C@H](O)C/C1=C/C=C1\CCC[C@]2(C)[C@@H]([C@H](C)/C=C/[C@H](C)C(C)C)CC[C@@H]12 [ERGOCALCIFEROL],Not Active
2,CCc1cccc2c3c([nH]c12)C(CC)(CC(=O)O)OCC3 (stereo not given) [ETODOLAC],Not Active

# Target: T5, Cathepsin G (Homo sapiens, UniProt P08311)
# T5 sequence (P08311 whole entry): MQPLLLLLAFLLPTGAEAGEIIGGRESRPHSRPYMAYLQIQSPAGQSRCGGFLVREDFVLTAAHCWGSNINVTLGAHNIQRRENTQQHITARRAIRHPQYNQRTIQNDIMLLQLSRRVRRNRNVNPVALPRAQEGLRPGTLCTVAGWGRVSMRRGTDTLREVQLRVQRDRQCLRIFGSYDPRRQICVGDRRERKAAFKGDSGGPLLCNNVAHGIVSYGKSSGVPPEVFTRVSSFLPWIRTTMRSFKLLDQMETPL
# Assay: not given
# Assay type: tissue-based
# Details: neutrophil
row,SMILES,IC50
1,C=C1CC[C@H](O)C/C1=C/C=C1\CCC[C@]2(C)[C@@H]([C@H](C)/C=C/[C@H](C)C(C)C)CC[C@@H]12 [ERGOCALCIFEROL],Not Active
2,CCc1cccc2c3c([nH]c12)C(CC)(CC(=O)O)OCC3 (stereo not given) [ETODOLAC],Not Active

# Target: Epidermal growth factor receptor (Homo sapiens, UniProt P00533)
# Sequence (P00533 whole entry): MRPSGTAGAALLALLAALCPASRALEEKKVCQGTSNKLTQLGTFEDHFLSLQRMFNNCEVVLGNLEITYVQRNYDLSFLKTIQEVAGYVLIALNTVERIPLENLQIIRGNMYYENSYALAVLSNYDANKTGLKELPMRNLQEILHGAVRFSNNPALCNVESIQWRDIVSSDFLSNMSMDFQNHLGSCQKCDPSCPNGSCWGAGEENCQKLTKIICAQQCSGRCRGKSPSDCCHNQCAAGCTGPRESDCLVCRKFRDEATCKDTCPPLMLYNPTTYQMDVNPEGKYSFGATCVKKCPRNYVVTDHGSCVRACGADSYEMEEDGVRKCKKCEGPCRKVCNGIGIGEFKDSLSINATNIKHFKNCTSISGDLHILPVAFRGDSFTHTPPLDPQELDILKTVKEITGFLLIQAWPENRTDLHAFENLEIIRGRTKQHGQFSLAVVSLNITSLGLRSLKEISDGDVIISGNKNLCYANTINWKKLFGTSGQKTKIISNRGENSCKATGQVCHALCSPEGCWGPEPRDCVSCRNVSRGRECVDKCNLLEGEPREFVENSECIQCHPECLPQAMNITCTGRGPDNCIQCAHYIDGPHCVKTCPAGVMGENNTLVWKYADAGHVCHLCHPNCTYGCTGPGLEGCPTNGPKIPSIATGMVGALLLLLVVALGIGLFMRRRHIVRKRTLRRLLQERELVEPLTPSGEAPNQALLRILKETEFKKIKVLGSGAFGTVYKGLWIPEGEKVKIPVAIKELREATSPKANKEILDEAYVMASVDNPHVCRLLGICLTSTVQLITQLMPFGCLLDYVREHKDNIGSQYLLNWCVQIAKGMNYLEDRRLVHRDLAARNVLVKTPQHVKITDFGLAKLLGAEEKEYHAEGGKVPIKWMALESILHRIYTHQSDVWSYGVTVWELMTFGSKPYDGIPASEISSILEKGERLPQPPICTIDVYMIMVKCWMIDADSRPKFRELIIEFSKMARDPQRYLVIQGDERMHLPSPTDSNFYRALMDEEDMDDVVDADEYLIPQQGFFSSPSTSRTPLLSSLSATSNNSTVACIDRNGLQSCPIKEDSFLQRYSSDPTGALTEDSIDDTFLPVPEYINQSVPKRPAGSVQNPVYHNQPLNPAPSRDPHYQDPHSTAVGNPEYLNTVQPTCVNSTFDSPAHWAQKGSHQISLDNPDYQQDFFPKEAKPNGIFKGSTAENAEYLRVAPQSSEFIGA
# Assay: DRUGMATRIX: Protein Tyrosine Kinase, EGF Receptor enzyme inhibition (substrate: Poly(Glu:Tyr))
# Assay type: cell-based, Insect cells
# Details: insect cells; Not Active = under 50% inhibition at 10 µM
row,SMILES,IC50
1,C=C1CC[C@H](O)C/C1=C/C=C1\CCC[C@]2(C)[C@@H]([C@H](C)/C=C/[C@H](C)C(C)C)CC[C@@H]12 [ERGOCALCIFEROL],Not Active
2,CCc1cccc2c3c([nH]c12)C(CC)(CC(=O)O)OCC3 (stereo not given) [ETODOLAC],Not Active

# Target: Tyrosine-protein kinase Fyn (Homo sapiens, UniProt P06241)
# Sequence (P06241 whole entry): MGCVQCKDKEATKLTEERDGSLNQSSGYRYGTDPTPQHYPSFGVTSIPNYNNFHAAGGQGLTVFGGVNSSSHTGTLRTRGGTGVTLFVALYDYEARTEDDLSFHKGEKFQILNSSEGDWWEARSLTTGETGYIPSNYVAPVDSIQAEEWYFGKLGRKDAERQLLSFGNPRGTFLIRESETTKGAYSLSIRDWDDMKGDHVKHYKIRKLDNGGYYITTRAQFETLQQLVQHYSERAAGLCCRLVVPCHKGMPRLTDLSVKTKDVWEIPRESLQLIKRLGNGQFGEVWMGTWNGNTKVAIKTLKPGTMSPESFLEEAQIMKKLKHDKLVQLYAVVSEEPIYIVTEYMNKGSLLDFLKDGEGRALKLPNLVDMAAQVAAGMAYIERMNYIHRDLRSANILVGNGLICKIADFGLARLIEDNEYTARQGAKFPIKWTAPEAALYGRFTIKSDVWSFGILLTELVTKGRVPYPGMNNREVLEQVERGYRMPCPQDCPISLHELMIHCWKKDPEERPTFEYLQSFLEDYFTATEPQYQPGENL
# Assay: biochemical
# Assay type: cell-based, Insect cells
# Details: insect cells
row,SMILES,IC50
1,C=C1CC[C@H](O)C/C1=C/C=C1\CCC[C@]2(C)[C@@H]([C@H](C)/C=C/[C@H](C)C(C)C)CC[C@@H]12 [ERGOCALCIFEROL],Not Active
2,CCc1cccc2c3c([nH]c12)C(CC)(CC(=O)O)OCC3 (stereo not given) [ETODOLAC],Not Active

# Tested on: not listed separately
# Assay: DRUGMATRIX: Purinergic P2X radioligand binding (ligand: [3H] alpha, beta-Methylene-ATP)
# Assay type: cell membranes, Oryctolagus cuniculus, New Zealand albino, Urinary bladder, Membrane
# Details: Not Active = under 50% inhibition at 10 µM
SMILES,IC50,Ki
C=C1CC[C@H](O)C/C1=C/C=C1\CCC[C@]2(C)[C@@H]([C@H](C)/C=C/[C@H](C)C(C)C)CC[C@@H]12 [ERGOCALCIFEROL],Not Active,Not Active
CCc1cccc2c3c([nH]c12)C(CC)(CC(=O)O)OCC3 (stereo not given) [ETODOLAC],Not Active,Not Active

# Target: 5-hydroxytryptamine receptor 1B (Rattus norvegicus, UniProt P28564); also: in other assays of this panel Not Active means under 50% inhibition at 10 µM
# Sequence (P28564 whole entry): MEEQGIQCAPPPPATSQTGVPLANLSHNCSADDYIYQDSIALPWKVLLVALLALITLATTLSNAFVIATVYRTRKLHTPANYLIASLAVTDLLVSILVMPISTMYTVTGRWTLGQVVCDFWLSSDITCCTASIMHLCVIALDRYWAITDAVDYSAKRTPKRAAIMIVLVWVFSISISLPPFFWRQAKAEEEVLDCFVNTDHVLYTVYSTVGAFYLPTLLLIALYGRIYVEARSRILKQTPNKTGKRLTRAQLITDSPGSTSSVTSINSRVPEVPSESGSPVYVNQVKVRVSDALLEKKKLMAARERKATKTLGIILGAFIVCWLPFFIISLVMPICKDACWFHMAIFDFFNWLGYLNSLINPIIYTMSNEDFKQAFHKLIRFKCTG
# Assay: not given
# Assay type: cell membranes, Wistar, Cerebral cortex, Membrane
# Details: not given
row,SMILES,IC50
1,C=C1CC[C@H](O)C/C1=C/C=C1\CCC[C@]2(C)[C@@H]([C@H](C)/C=C/[C@H](C)C(C)C)CC[C@@H]12 [ERGOCALCIFEROL],Not Active
2,CCc1cccc2c3c([nH]c12)C(CC)(CC(=O)O)OCC3 (stereo not given) [ETODOLAC],Not Active

# — ChEMBL document CHEMBL1909046, “DrugMatrix in vitro pharmacology data”
